Measured values published in ChEMBL document CHEMBL1153432 (J Med Chem, 2009).
Where a SMILES comes first, the peptide text is derived from it. [ ]: non-standard residue; d: D form. The star is where a group is joined. Heptanoyl = CCCCCCC(=O)*; Dap = NC[C@H](N)C(=O)O; X1 = O=C(CCCCCF)*

Tests used:
[1] = target: T1, Growth hormone secretagogue receptor type 1 (Homo sapiens, UniProt Q92847); experiment: Displacement of [35S]MK-0677 from human growth hormone secretagogue receptor
[2] = target: T1, Growth hormone secretagogue receptor type 1; experiment: Displacement of [125I]ghrelin from human growth hormone secretagogue receptor expressed in CHO-K1 cells at >2 uM; format: cell-based
[3] = target: T1, Growth hormone secretagogue receptor type 1; experiment: Displacement of [125I]ghrelin from human growth hormone secretagogue receptor expressed in CHO-K1 cells; format: cell-based

T1 sequence (Q92847 whole entry): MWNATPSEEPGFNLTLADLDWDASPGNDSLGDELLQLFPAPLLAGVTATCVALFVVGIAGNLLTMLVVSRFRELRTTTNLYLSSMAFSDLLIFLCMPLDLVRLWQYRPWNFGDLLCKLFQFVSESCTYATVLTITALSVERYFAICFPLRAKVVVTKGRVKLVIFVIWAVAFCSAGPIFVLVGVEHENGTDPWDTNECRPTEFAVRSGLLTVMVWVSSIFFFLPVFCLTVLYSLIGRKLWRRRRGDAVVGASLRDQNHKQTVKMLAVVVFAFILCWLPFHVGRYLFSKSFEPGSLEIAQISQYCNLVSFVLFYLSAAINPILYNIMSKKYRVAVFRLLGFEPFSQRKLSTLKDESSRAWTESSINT

For `CCCCCCC(=O)OC[C@H](NC(=O)[C@H](CO)NC(=O)CN)C(=O)N[C@@H](Cc1ccccc1)C(=O)N[C@@H](CC(C)C)C(=O)N[C@@H](CO)C(=O)N1CCC[C@H]1C(=O)N[C@@H](CCC(=O)O)C(=O)N[C@@H](Cc1cnc[nH]1)C(=O)N[C@@H](CCC(N)=O)C(=O)N[C@@H](CCCN=C(N)N)C(=O)N[C@H](C(=O)N[C@@H](CCC(N)=O)C(=O)N[C@@H](CCC(N)=O)C(=O)O)C(C)C`, the IC50 [1] was 9.6 µM.
`CCCCCCC(=O)OC[C@H](NC(=O)[C@H](CO)NC(=O)CN)C(=O)N[C@@H](Cc1ccccc1)C(N)=O` (H-GSS(Heptanoyl)F-NH2) gave an IC50 [1] of 889 µM.
`CCCCCCC(=O)OC[C@H](NC(=O)[C@H](CO)NC(=O)CN)C(=O)N[C@@H](Cc1ccccc1)C(=O)N[C@@H](CC(C)C)C(N)=O` (H-GSS(Heptanoyl)FL-NH2) gave an IC50 [1] of 55 µM.
`CC(C)C[C@H](NC(=O)[C@H](Cc1ccccc1)NC(=O)[C@H](CNC(=O)CCCCCF)NC(=O)[C@H](CO)NC(=O)CN)C(N)=O` (H-GS[Dap](X1)FL-NH2) was tested, and the Activity [2] was 20% and the IC50 [3] was greater than 2 µM.
